Source: patent publication US11931345B2, “Thiazolidinedione analogs for the treatment of NAFLD and metabolic diseases” (Cirius Therapeutics, Inc., priority 2018, dated 2024)

How the values were obtained:
[1] = phase 2 clinical trial, cited from earlier work
[2] = target: T1, mitochondrial pyruvate carrier (MPC) (Homo sapiens, UniProt O95563+Q9Y5U8); settings: cited from earlier work
T1 sequence (Q9Y5U8 1-109): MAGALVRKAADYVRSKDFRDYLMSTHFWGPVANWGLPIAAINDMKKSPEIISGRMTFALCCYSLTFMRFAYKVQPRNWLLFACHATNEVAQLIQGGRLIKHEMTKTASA
T1 sequence (O95563 1-127): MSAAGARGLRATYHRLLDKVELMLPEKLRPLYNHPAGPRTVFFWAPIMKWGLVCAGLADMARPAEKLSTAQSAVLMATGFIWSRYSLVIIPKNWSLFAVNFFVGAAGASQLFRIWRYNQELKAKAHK

[3] = tested on: uncoupling protein 1 (UCP1); assay: UCP1 expression (Western blot) in brown adipose precursors in vitro, with T3; type: cell-based; settings: added to T3 0 to 30 nM; sensitivity and magnitude of response; FIG. 14
From the text: FIG. 14. Is a graphic representation of the data of thyroid hormone with MSDC-0602 in vitro.
The addition of the thyroid agonist not only increases the maximum response. […] The response measured here is increased expression of the uncoupling protein 1 (UCP1) on Western blot—a measure of differentiation of brown adipose cells.

[4] = tested on: diet-induced obese (60% HF diet) WT (fl/fl) and LS-MPC2-/- mice; assay: Markers of liver injury (plasma ALT, qPCR gene expression) in obese WT and LS-MPC2-/- mice after a single dose; type: in vivo, mouse
Procedure: (§1) 8 week old WT and LS-MPC2−/− mice were fed a diet of 60% fat (Research Diets D12492) for 20 weeks to induce obesity and insulin resistance. Intraperitoneal glucose tolerance tests (GTT) were performed after a 4 h fast by injection of 1 g/kg D-glucose in saline i.p. to assess glucose tolerance. 3 days after the initial GTT, mice were randomized to receive a single gavage of either vehicle (1% CMC, 0.01% Tween-80) or 30 mg/kg MSDC-0602K. Plasma insulin was measured by Singulex assay and plasma ALT levels were measured by commercially-available kits (Teco Diagnostics). qPCR was performed by isolation of total RNA with RNA-Bee and reverse transcription with a high-capacity cDNA synthesis kit (Invitrogen). qPCR was performed on an Applied Biosystems real-time thermocycler.

[5] = tested on: diet-induced obese (60% HF diet) WT (fl/fl) and LS-MPC2-/- mice; assay: Intraperitoneal glucose tolerance test and plasma insulin in diet-induced obese WT and LS-MPC2-/- mice after a single dose; type: in vivo, mouse; settings: for glucose tolerance (GTT): 20 h after a single dose of 30 mg/kg; for plasma insulin: single dose 30 mg/kg
Procedure: as §1

pancreatic islets = assay: Pancreas histology and IHC of ZDSD/Pco rats (insulin, Ki67, PDX-1, Bcl2); type: in vivo, rat; settings: pancreas at sacrifice; high fat diet; oral MSDC-0602 30 mg/kg, exenatide s.q. 1 μg
Procedure: (§2) Male ZDSD/Pco rats were maintained on standard chow 5008 (Purina) until treatment groups were switched to the high fat diet (Purina 5SCA). […] Control rats (given both vehicles) were maintained on the normal diet and the treatment groups were switched to the high fat diet as indicated. Glucose and insulin were measured weekly from tail vein samples. On day 36 an oral glucose tolerance test (OGTT); 2 g/kg) was conducted after a 16 hour fast. Glucose samples were taken at 0, 30, 60, 90, and 120 minutes; insulin was measured at 0 and 30 minutes and the change at 30 minutes is shown. Data are mean and SE; N=10. At sacrifice, the pancreas was fixed in formalin and shipped to MSU for histology and IHC. A range of anti-bodies were used to identify and quantify the presence of insulin, Ki67, collagen, CD3 lymphocytes, PDX-1 and Bcl2. An Image-Pro system was used with Image J to quantify the degree of positive staining. […] Five matched groups of ZDSD/Pco rats were selected at 14 weeks of age and then treated for 6 weeks. […] At sacrifice, the pancreas was removed, fixed, and stained for insulin, PDX1, and Ki67, as an index of proliferation.

serum miRNAs = assay: Serum miRNA sequencing in NASH (HTF-C) diet mice; type: in vivo, mouse
Procedure: To begin evaluating the exosome cargo of MSDC-0602K-treated mice, WT mice were fed with either a low fat (LF) control diet (Research Diets D09100304) or high trans-fat, fructose, cholesterol (HTF-C) diet composed of 40% trans-fat, 20% fructose, 2% cholesterol (Research Diets D09100301).
Total RNA was isolated from 400 μL of serum and small RNA sequencing was performed by adapter ligation, cDNA synthesis and size selection of 145-160 base pairs. Sequencing was then performed on an Illumina HiSeq3000.

[6] = tested on: ZDSD/Pco rats challenged with a high fat diet; assay: ZDSD/Pco rats on high fat diet: circulating glucose, insulin, OGTT; type: in vivo, rat; settings: over 4 week treatment, compared to group 2 (control treatment on high fat diet); oral MSDC-0602 30 mg/kg, exenatide s.q. 1 μg
Procedure: as §2

mouse model of NASH = settings: effects require MPC expression in hepatocytes; cited from earlier work

COc1cccc(C(=O)COc2ccc(CC3SC(=O)NC3=O)cc2)c1 (stereo not shown) [MSDC-0602]
circulating glucose ([1]; FIG. 1A): lowered | circulating insulin ([1]; FIG. 1B): lowered | MPC binding and modulation [2]: binds and modulates | increase of UCP1 expression, interaction with thyroid hormone [3]: synergy (much larger response) | plasma ALT and liver injury gene expression, response to acute treatment ([4]; LS-MPC2-/- mice, single dose): refractory | plasma ALT concentrations ([4]; WT mice, single dose, FIG. 11A): decreased | gene expression for hepatic stellate cell activation and fibrotic scar formation ([4]; WT mice, single dose, FIG. 11B): decreased | glucose tolerance (GTT) ([5]; LS-MPC2-/- mice): no improvement in glucose tolerance | plasma insulin ([5]; LS-MPC2-/- mice): decreased | glucose tolerance (GTT) ([5]; WT mice): improved glucose tolerance | plasma insulin ([5]; WT mice): decreased | insulin staining (pancreatic islets): increased | number of islet cells (pancreatic islets): increased | serum miRNAs altered in NASH model (serum miRNAs; HTF-C diet containing 331 ppm MSDC-0602, heat map of ~230 miRNAs): largely corrected | serum miRNAs upregulated in NASH (mmu-miR-29c-3p, mmu-miR-802-3p, mmu-miR-802-5p) (serum miRNAs; HTF-C diet, FIGS. 13A-13C): down | serum miRNAs down in NASH (mmu-miR-127-3p, mmu-miR-129-2-3p, mmu-miR-615-3p) (serum miRNAs; HTF-C diet, FIGS. 13D-13F): up | serum miRNAs mmu-miR-129-5p, mmu-miR-205-5p (serum miRNAs; HTF-C diet, FIGS. 13G-13H): large effect | glucose levels [6]: significantly reduced | liver damage (mouse model of NASH): prevents and reverse liver damage

COc1cccc(C(=O)COc2ccc(CC3SC(=O)[N-]C3=O)cc2)c1.[K+] (stereo not shown) [MSDC-0602K]
increase of UCP1 expression, interaction with thyroid hormone [3]: synergistic | liver injury, major acute effects ([4]; acute dosing, effects require hepatocyte MPC): attenuate liver injury | glucose tolerance (GTT) ([5]; WT mice): improves glucose tolerance
